# Reference: patent US9603854B2, “Indolizine compounds, a process for their preparation and pharmaceutical compositions containing them” (LES LABORATOIRES SERVIER, priority 2012, dated 2017)
# Where a name gives a salt, the structure may show the parent alone.
# Assays:
# [1] = system: RS4;11 leukaemia tumour line; experiment: In vitro cytotoxicity (Microculture Tetrazolium Assay, 48 hours); assay type: cell-based; conditions: cytotoxicity for RS4;11 cells, MTT
# Description: The cytotoxicity studies were carried out on the RS4;11 leukaemia tumour line.
# The cells are distributed onto microplates and exposed to the test compounds for 48 hours.
# caspase 3 = experiment: Induction of caspase activity in vivo (DEVDase activity in tumour lysates, RS4;11 xenograft); parameters: species or system mice (SCID strain); conditions: oral treatment 50 mg/kg, RS4;11 xenograft in SCID mice, 16 hours after treatment; for fold induction at 50 mg/kg: Mus musculus, read-out: Activation factor (versus control), DEVDase activity in the tumours
# Description: The ability of the compounds of the invention to activate caspase 3 is evaluated in a xenograft model of RS4;11 leukaemia cells.
# 1×10^7 RS4;11 cells are grafted sub-cutaneously into immunosuppressed mice (SCID strain). 25 to 30 days after the graft, the animals are treated orally with the various compounds. Sixteen hours after treatment, the tumour masses are recovered and lysed, and the caspase 3 activity is measured in the tumour lysates.
# This enzymatic measurement is carried out by assaying the appearance of a fluorigenic cleavage product (DEVDase activity, Promega). It is expressed in the form of an activation factor corresponding to the ratio between the two caspase activities: the activity for the treated mice divided by the activity for the control mice.
# Bcl-2 protein = Bcl-2 protein (Homo sapiens (Human), UniProt P10415); experiment: Inhibition of Bcl-2 by the fluorescence polarisation technique; assay type: binding; conditions: Bcl-2 inhibition, fluorescence polarisation test; read-out: IC50 (nM) Bcl-2 FP
# Description: The fluorescence polarisation tests were carried out on microplates (384 wells). […] After incubation for 2 hours, the fluorescence polarisation is measured.
# Sequence of Bcl-2 protein (P10415 whole entry): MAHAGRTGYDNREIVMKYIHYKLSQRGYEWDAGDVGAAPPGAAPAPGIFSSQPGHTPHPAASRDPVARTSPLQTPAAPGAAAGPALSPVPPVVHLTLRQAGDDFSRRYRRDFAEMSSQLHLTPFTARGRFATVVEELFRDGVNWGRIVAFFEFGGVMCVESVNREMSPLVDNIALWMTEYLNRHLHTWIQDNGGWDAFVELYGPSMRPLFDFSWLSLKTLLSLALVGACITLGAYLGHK
Structure (SMILES),IC50 [1] [nM],IC50 (Bcl-2 protein) [nM],IC50 ([1]; Homo sapiens) [nM],further results
"Cl.Cn1ccc2cc(N(C(=O)c3cc(-c4cc(Cl)ccc4C(=O)N4Cc5ccccc5C[C@H]4CN4CCOCC4)n4ccccc34)c3ccc(O)cc3)ccc21 [Example 67, 3-{5-Chloro-2-[((3S)-3-(4-morpholinylmethyl)-3,4-dihydro-2(1H)-isoquinolinyl)carhonyl]phenyl}-N-(4-hydroxyphenyl)-N-(1-methyl-1H-indol-5-yl)-1-indolizine carboxamide hydrochloride]",17.7,–,–,"Activation factor (versus control), DEVDase activity in the tumours (caspase 3): 18.9 (50 mg/kg)"
"Cn1ccc2cc(N(C(=O)c3cc(-c4cc5c(cc4C(=O)N4Cc6ccccc6C[C@H]4CN4CCOCC4)OCO5)n4c3CCC4)c3ccc(O)cc3)ccc21 [Example 96, N-(4-Hydroxyphenyl)-N-(1-meth-1H-indol-5-yl)-5-(6-{[(3S)-3-(morpholin-4-ylmethyl)-3,4-dihydroisoquinolin-2(1H)-yl]carbonyl}-1,3-benzodioxol-5-yl)-2,3-dihydro-1H-pyrrolizine-7-carboxamide hydrochloride]",58.8,–,–,–
Cn1ccc2cc(N(C(=O)c3cc(-c4cc5c(cc4C(=O)N4Cc6ccccc6C[C@H]4CN4CCOCC4)OCO5)n4c3CN(C(=O)OC(C)(C)C)CC4)c3ccc(O)cc3)ccc21 [Example 72],270,220,–,–
"Cn1ccc2ccc(N(C(=O)c3cc(-c4cc(Cl)ccc4C(=O)N4Cc5ccccc5C[C@H]4CN4CCOCC4)n4c3CCCCC4)c3ccc(O)cc3)cc21 [Example 83, 3-{5-Chloro-2-[((3S)-3-(4-morpholinylmethyl)-3,4-dihydro-2(1H)-isoquinolinyl)carhonyl]phenyl}-N-(4-hydroxyphenyl)-N-(1-methyl-1H-indol-6-yl)-6,7,8,9-tetrahydro-5H-pyrrolo[1,2-a]azepine-1-carboxamide hydrochloride]",41.2,–,–,–
"CN1CCc2cc(N(C(=O)c3cc(-c4cc(Cl)ccc4C(=O)N4Cc5ccccc5C[C@H]4CN4CCOCC4)c4n3CCCC4)c3ccc(O)cc3)ccc21 [Example 43, 1-{5-Chloro-2-[((3S)-3-(4-morpholinylmethyl)-3,4-dihydro-2(1H)-isoquinolinyl)carbonyl]phenyl}-N-(4-hydroxyphenyl)-N-(1-methyl-2,3-dihydro-1H-indol-5-yl)-5,6,7,8-tetrahydro-3-indolizine carboxamide hydrochloride]",–,110,–,–
"O=C(c1cc(-c2cc3c(cc2C(=O)N2Cc4ccccc4C[C@H]2CN2CCOCC2)OCO3)n2c1CCCC2)N(c1ccc(O)cc1)c1ccc(Cl)cc1 [Example 3, N-(4-Chlorophenyl)-N-(4-hydroxyphenyl)-3-{6-[((3S)-3-(4-morpholinylmethyl)-3,4-dihydro-2(1H)-isoquinolinyl)carbonyl]-1,3-benzodioxol-5-yl}-5,6,7,8-tetrahydro-1-indolizine carboxamide hydrochloride]",–,20,44.7,fold induction at 50 mg/kg (caspase 3): 5.7
"O=C(c1cc(-c2cc3c(cc2C(=O)N2Cc4ccccc4C[C@H]2CN2CCOCC2)OCO3)n2ccccc12)N(c1ccccc1)c1ccc(O)cc1 [Example 58, N-(4-Hydroxyphenyl)-3-{6-[((3S)-3-(4-morpholinylmethyl)-3,4-dihydro-2(1H)-isoquinolinyl)carbonyl]-1,3-benzodioxol-5-yl}-N-phenyl-1-indolizine carboxamide hydrochloride]",–,22,40.1,fold induction at 50 mg/kg (caspase 3): 23.3
"O=C(c1cc(-c2cc3c(cc2C(=O)N2Cc4ccccc4C[C@H]2CN2CCOCC2)OCO3)n2c1CCCC2)N(c1ccc(O)cc1)c1ccc(O)cc1 [Example 6, N,N-bis(4-Hydroxyphenyl)-3-{6-[((3S)-3-(4-morpholinylmethyl)-3,4-dihydro-2(1H)-isoquinolinyl)carbonyl]-1,3-benzodioxol-5-yl}-5,6,7,8-tetrahydra-1-indolizine carboxamide hydrochloride]",30,–,–,–
"CCOc1ccc(C(=O)N2Cc3ccccc3C[C@H]2CN2CCOCC2)c(-c2cc(C(=O)N(c3ccc(O)cc3)c3ccc4c(ccn4C)c3)c3n2CCCC3)c1 [Example 36, 3-{5-Ethoxy-2-[((3S)-3-(4-morpholinylmethyl)-3,4-dihydro-2(1H)-isoquinolinyl)carbonyl]phenyl}-N-(4-hydroxyphenyl)-N-(1-methyl-1H-indol-5-yl)-5,6,7,8-tetrahydro-1-indolizine carboxamide hydrochloride]",–,–,135,–
